Measured values published in the NIST ThermoML archive (doi:10.1016/j.jct.2017.06.001).

Legend:
[1] = 100 kPa, Liquid; for mass density: Vibrating tube method; for speed of sound: Frequency=5 MHz, Pulse-echo method
[2] = xn = mol fraction of the nth substance listed; conditions: 100 kPa, Liquid, x2 = 0; for mass density: Vibrating tube method; for speed of sound: Frequency=5 MHz, Pulse-echo method

OCCCCCO [1,5-pentanediol]
[1]
Conditions | mass density [kg/m3] | speed of sound [m/s]
278.15 K | 998 | –
283.15 K | 995 | –
288.15 K | 992.2 | 1616.4
293.15 K | 989.3 | 1605
298.15 K | 986.5 | 1593.8
303.15 K | 983.6 | 1582.5
308.15 K | 980.7 | 1571.3
313.15 K | 977.8 | 1560.2
318.15 K | 974.9 | 1549
323.15 K | 971.9 | –
328.15 K | 969 | –
333.15 K | 965.9 | –

O [water] + OCCCCCO
[2]
Conditions | mass density [kg/m3] | speed of sound [m/s]
278.15 K | 999.97 | –
283.15 K | 999.7 | –
308.15 K | – | 1519.2
313.15 K | – | 1528.8
318.15 K | – | 1536.7
323.15 K | 988.03 | –
328.15 K | 985.68 | –
333.15 K | 983.19 | –
